Results on six compounds are retold here after ChEMBL document CHEMBL1128910, “Time-dependent inactivation of steroid C17(20) lyase by 17-cyclopropyl ether-substituted steroids” (Bioorg Med Chem Lett, 1996).

The target in test [1] is T1, Steroid 17-alpha-hydroxylase/17,20 lyase (Homo sapiens, UniProt P05093).
T1 sequence (P05093 whole entry): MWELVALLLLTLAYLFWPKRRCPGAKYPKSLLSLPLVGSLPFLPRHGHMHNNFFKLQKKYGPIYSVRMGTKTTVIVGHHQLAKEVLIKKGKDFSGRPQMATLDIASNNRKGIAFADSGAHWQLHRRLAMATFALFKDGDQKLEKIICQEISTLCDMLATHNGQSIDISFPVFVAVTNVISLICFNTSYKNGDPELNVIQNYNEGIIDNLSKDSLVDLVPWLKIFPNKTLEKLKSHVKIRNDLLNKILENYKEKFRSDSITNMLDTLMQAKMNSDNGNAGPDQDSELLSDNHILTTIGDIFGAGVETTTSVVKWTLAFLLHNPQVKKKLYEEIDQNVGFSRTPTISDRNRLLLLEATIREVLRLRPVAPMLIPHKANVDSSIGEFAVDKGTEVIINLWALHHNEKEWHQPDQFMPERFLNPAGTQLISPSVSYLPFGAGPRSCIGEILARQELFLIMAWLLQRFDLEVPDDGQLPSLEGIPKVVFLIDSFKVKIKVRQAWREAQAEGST
The test is described as follows: Inhibition of cynomolgus monkey Cytochrome P450 steroid 17-alpha-hydroxylase/17,20 lyase at 0.1 uM.

Test [2] deals with T1, Steroid 17-alpha-hydroxylase/17,20 lyase. The test is described as follows: Inhibition of cynomolgus monkey Cytochrome P450 steroid 17-alpha-hydroxylase/17,20 lyase at 0.1 uM pre-incubation time of 40 minutes.
Test [3] has the same target. The test is described as follows: Inhibition of cynomolgus monkey Cytochrome P450 steroid 17-alpha-hydroxylase/17,20 lyase at 1 uM.
The target is the same in test [4]. The test is described as follows: Inhibition of cynomolgus monkey Cytochrome P450 steroid 17-alpha-hydroxylase/17,20 lyase at 1 uM preincubation time 40 minutes.
For test [5] the target is unchanged. The test is described as follows: Inhibition of human Cytochrome P450 steroid 17-alpha-hydroxylase/17,20 lyase at 0.8 uM.
Test [6] shares this target. Briefly: Inhibition of human Cytochrome P450 steroid 17-alpha-hydroxylase/17,20 lyase at 0.8 uM pre-incubation time 30 minutes.

With `C[C@]12CCC(=O)C=C1C(=O)CC1C2CC[C@@]2(C)C1CC[C@@H]2OC1CC1` (stereo partly specified), the inhibition (commonly the percentage by which the read-out fell short of the control) at 0.1 µM was determined as 17% in test [1] and 51% in test [2]. Also, the inhibition at 1 µM in test [3] is 52%; in test [4] it was 79%.
`C[C@]12CCC(=O)C=C1CCC1C2CC[C@@]2(C)C1CC[C@@H]2OC1CC1` (stereo partly specified): the inhibition at 0.1 µM was determined as 26% in test [1] and 55% in test [2]. In addition, the inhibition at 1 µM in test [3] stood at 73%; in test [4] it was 90%.
Turning to `C[C@]12CCC3C(CC=C4C[C@@H](O)[C@H]5COC[C@]43C5)C1CC[C@@H]2OC1CC1` (stereo partly specified), the inhibition at 0.8 µM in test [5] and in test [6] was 0% throughout.
With `C[C@]12CCC3C(CCC4=CC(=O)[C@H]5COC[C@]43C5)C1CC[C@@H]2OC1CC1` (stereo partly specified), the values for the inhibition at 0.8 µM in test [5] and in test [6] were 1% and 17%, respectively.
For the compound `CC1(C)C2=CCC3C(CC[C@@]4(C)C3CC[C@@H]4OC3CC3)[C@@]2(C)CC[C@@H]1O` (stereo partly specified), the inhibition at 0.8 µM in test [5] and in test [6] was 0% each time.
For `C[C@]12CC[C@H](O)CC1=CCC1C2CC[C@@]2(C)C1CC[C@@H]2OC1CC1` (stereo partly specified), the inhibition at 0.8 µM in test [5] worked out at 11%; in test [6], 64%.
